Measurements reported in paper PMC4823711, “Allosteric Partial Inhibition of Monomeric Proteases. Sulfated Coumarins Induce Regulation, not just Inhibition, of Thrombin” (Scientific Reports, 2016).
Values joined by “and” are separate entries in the source; they are usually repeats but may differ in a detail not shown here. Equal entries are not always repeated.

Tests used:
thrombin = thrombin (Homo sapiens, UniProt P00734); test: Chromogenic substrate hydrolysis assay, thrombin inhibition (Spectrozyme TH); format: biochemical; design: 6 nM plasma α-thrombin; purchased Haematologic Technologies (Essex Junction, VT); details: pH 7.4, 25 °C
Experimental: (§1) Chromogenic substrate hydrolysis assay was used to measure potency of inhibition, as previously reported. The assay was performed using Flexstation III (Molecular Devices, Sunnyvale, CA) by monitoring substrate hydrolysis at 405 nm. For thrombin and its mutants, 180 μL of buffer (20 mM Tris-HCl, 100 mM NaCl, 2.5 mM CaCl2, 0.1% (polyethylene glycol) PEG 8000, pH 7.4) was added to each well followed by 5 μL of 240 nM thrombin and 10 μL of sulfated coumarin in DMSO to give 0.002 to 250 μM final concentration (or 10 μL of DMSO alone). After incubation for 10 min at 25 °C, 5 μL of 2 mM Spectrozyme TH was added to each well simultaneously and allowed to react for 60 seconds at 25 °C while simultaneously monitoring the reaction to obtain the rate of increase in A405. Identical experimental conditions were used for reactions in the presence of antithrombin, except for 100 nM of antithrombin added prior to the addition of the substrate.
(§2) For factor XIa inhibition studies, 85 μL of buffer (50 mM Tris-HCl, 150 mM NaCl, 0.1% PEG 8000, 0.02% Tween 80, pH 7.4) was added to each well, followed by 7 μL of 15.3 nM enzyme and 3 μL of sulfated coumarin (3.75–500 μM final concentration) and incubated for 10 min at 37 °C. After the incubation period, 5 μL of 6.9 mM S-2366 was added to each well simultaneously and allowed to react for 300 sec at 37 °C. For factor Xa assay, 180 μL of buffer (20 mM Tris-HCl, 100 mM NaCl, 2.5 mM CaCl2, 0.1% PEG 8000, 0.02% Tween 80, pH 7.4) was added to each well followed by 5 μL of 43.5 nM enzyme, 10 μL of sulfated coumarin (0.002–250 μM final concentration). After a 10 min incubation, 5 μL of 5 mM Spectrozyme FXa was added to each well simultaneously and allowed to react for 300 seconds at 37 °C. The slopes generated from each experiment were used to calculate the fractional residual activity (Y) at each concentration of the inhibitor, and analyzed using logistic equation 1, in which YM is the maximum efficacy, Y0 is minimum efficacy and HS is the Hill slope.

[1] = biological target: T1, fluorescein-labeled (f FPRCK-) thrombin (Homo sapiens, UniProt P00734); test: Iodide fluorescence quenching of f FPRCK-thrombin (Stern-Volmer)
T1 construct: fluorescein-labeled (f FPRCK-) human thrombin; purchased Haematologic Technologies (Essex Junction, VT); host or cells: human plasma
Experimental: The quenching studies performed were done using quartz cuvettes, as described previously. 180 μL of buffer (20 mM Tris-HCl, 100 mM NaCl, 2.5 mM CaCl2, 0.1% PEG 8000, pH 7.4) and 20 μL of 2 μM fluorescein-labeled (f FPRCK-) human thrombin were added to the cuvette; fluorescent intensity readings were taken at the λEX of 490 nm and λEM of […] at 25 °C. A solution of 10 M NaI was made using buffer as the solvent. For the readings where inhibitor was absent, 1 μL increments of 10 M NaI was added directly to the cuvette after initial readings of the buffer-thrombin solution. NaI was added six times, while recording changes in fluorescent intensity each time, giving a concentration range of […] in the cuvette. For the readings where inhibitor was present, after the initial buffer-thrombin read, 1 μL of 80 μM inhibitor solution was added to the cuvette and mixed. An intensity reading was taken and then the addition of 1 μL increments of 10 M NaI was again performed six times, taking reads between each addition. The experiments were performed in triplicate and averaged. Initial fluorescence (F0) was the intensity reading from either the buffer-thrombin solution in the absence of 3g or following addition of 1 μL of 3g. […]

thrombin mutant R126A = biological target: T2, thrombin mutant R126A (Homo sapiens, UniProt P00734, R486A); test: Inhibition of thrombin mutant R126A; format: biochemical; details: pH 7.4, 25 °C
T2 construct: a group of thrombin mutants containing replacement of either Arg or Lys present in exosite 2 to Ala
Experimental: as §1

thrombin mutant R165A = biological target: T3, thrombin mutant R165A (Homo sapiens, UniProt P00734, R533A); test: Inhibition of thrombin mutant R165A; format: biochemical; details: pH 7.4, 25 °C
T3 construct: a group of thrombin mutants containing replacement of either Arg or Lys present in exosite 2 to Ala
Experimental: as §1

thrombin mutant R93A = biological target: T4, thrombin mutant R93A (Homo sapiens, UniProt P00734, R452A); test: Inhibition of thrombin mutant R93A; format: biochemical
T4 construct: a group of thrombin mutants containing replacement of either Arg or Lys present in exosite 2 to Ala
Experimental: as §1

factor XIa = biological target: T5, factor XIa (Homo sapiens, UniProt P03951); test: Chromogenic substrate hydrolysis assay, factor XIa inhibition (S-2366); format: biochemical
T5 construct: antithrombin, factor Xa and factor XIa were from Haematologic Technologies; purchased Haematologic Technologies (Essex Junction, VT); host or cells: human plasma
T5 sequence (P03951 388-625 limits assumed): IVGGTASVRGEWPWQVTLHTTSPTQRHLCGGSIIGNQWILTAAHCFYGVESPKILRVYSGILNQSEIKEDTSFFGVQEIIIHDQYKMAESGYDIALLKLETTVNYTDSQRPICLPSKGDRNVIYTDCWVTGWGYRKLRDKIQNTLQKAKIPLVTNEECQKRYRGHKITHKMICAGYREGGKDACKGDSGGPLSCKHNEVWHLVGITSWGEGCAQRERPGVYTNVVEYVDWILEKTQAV
T5 sequence (P03951 19-387 limits assumed): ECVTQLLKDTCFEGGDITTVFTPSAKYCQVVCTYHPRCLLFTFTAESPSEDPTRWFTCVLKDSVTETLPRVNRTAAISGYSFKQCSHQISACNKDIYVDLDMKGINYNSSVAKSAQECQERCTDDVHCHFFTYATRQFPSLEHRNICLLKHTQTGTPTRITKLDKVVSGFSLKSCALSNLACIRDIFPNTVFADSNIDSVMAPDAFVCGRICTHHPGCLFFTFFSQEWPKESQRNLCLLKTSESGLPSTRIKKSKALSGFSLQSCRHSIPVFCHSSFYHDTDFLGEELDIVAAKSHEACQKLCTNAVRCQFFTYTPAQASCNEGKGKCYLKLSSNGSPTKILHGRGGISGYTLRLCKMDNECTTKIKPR
Experimental: as §2

[2] = test system: recombinant human thrombins; test: Inhibition of recombinant thrombins (wild type and exosite 2 mutants, summary statements); format: biochemical
Experimental: as §1

thrombin mutant R101A = biological target: T6, thrombin mutant R101A (Homo sapiens, UniProt P00734, R461A); test: Inhibition of thrombin mutant R101A; format: biochemical; details: pH 7.4, 25 °C
T6 construct: a group of thrombin mutants containing replacement of either Arg or Lys present in exosite 2 to Ala
Experimental: as §1

thrombin mutant K236A = biological target: T7, thrombin mutant K236A (Homo sapiens, UniProt P00734, K611A); test: Inhibition of thrombin mutant K236A; format: biochemical; details: pH 7.4, 25 °C
T7 construct: a group of thrombin mutants containing replacement of either Arg or Lys present in exosite 2 to Ala
Experimental: as §1

thrombin mutant K169A = biological target: T8, thrombin mutant K169A (Homo sapiens, UniProt P00734, K537A); test: Inhibition of thrombin mutant K169A; format: biochemical; details: pH 7.4, 25 °C
T8 construct: a group of thrombin mutants containing replacement of either Arg or Lys present in exosite 2 to Ala
Experimental: as §1

`O=c1oc2cc(OCCCCn3cc(COc4ccc(-c5c(-c6ccccc6)c6cc(Cl)cc(Cl)c6oc5=O)cc4)nn3)ccc2c(-c2ccccc2)c1-c1ccc(OS(=O)(=O)O)cc1` [3g] was tested, and the “Hill slope (HS) of thrombin inhibition” value (thrombin) was 1.2, the “efficacy of thrombin inhibition (ΔY)” value (thrombin; at saturation) was 47% and 50% and the IC50 (thrombin; read-out: IC50 against thrombin) was 180 nM. The “slope of iodide quenching (Stern-Volmer, KSV)” value ([1]; 90% saturation of thrombin, pH 7.4, 25 °C, thrombin alone 2.37 ± 0.14) was 1.19 ± 0.06 M⁻¹, the “reduction of iodide quenching of f FPRCK-thrombin” value ([1]; 90% saturation, versus thrombin alone) was ~ 50% and the HS (thrombin mutant R126A) was 3.2. For the same compound, the IC50 (thrombin mutant R126A) was 308 ± 30 nM, the ΔY (thrombin mutant R126A) was 41 ± 2% and the HS (thrombin mutant R165A) was 4.2. For the same compound, the IC50 (thrombin mutant R165A) was 301 ± 20 nM, the ΔY (thrombin mutant R165A) was 28 ± 2% and the “increase of inhibition potency in comparison to recombinant wild-type thrombin” value (thrombin mutant R93A; R93A mutant) was 2.3 fold. It also gave an HS (thrombin mutant R93A; R93A, pH 7.4, 25 °C) of 1.3, an IC50 (thrombin mutant R93A; R93A, pH 7.4, 25 °C) of 154 ± 20 nM and a ΔY (thrombin mutant R93A; R93A, pH 7.4, 25 °C) of 51 ± 2%. For the same compound, the “selectivity for thrombin in comparison to factor XIa” value (factor XIa) was ~ 150 fold, the IC50 (factor XIa; pH 7.4, 37 °C, read-out: IC50 against factor XIa) was over 30000 nM and the “increase of IC50 in comparison to recombinant wild-type thrombin” value ([2]; mutants K236A, K235A, R173A and K169A) was under 1.4 fold. It also gave a maximal inhibition efficacies ([2]; range over all recombinant thrombins studied) of 28 to 64%, an HS (thrombin mutant R101A) of 2.5 and an IC50 (thrombin mutant R101A) of 255 ± 50 nM. For the same compound, the ΔY (thrombin mutant R101A) was 35 ± 4%, the HS (thrombin mutant K236A) was 2.6 and the IC50 (thrombin mutant K236A) was 525 ± 70 nM. It also gave a ΔY (thrombin mutant K236A) of 64 ± 4%, an HS (thrombin mutant K169A) of 7.6 and an IC50 (thrombin mutant K169A) of 494 ± 50 nM. It also gave a ΔY (thrombin mutant K169A) of 38 ± 3%.
